Reference: paper PMC5723097, “Molecular and functional characterization of ferredoxin NADP(H) oxidoreductase from Gracilaria chilensis and its complex with ferredoxin” (Biological Research, 2017)

Tested on: T1, FNR^PBS (ferredoxin NADP(H) oxidoreductase)
T1 construct: gene petH; native enzyme in phycobilisome-enriched fraction; N-terminal peptides MAAVDKKK (1-8), VPINIFRPK (9-17); not recombinant
Assay: diaphorase assay, NADPH oxidation at […] nm, Michaelis-Menten fit
Format: biochemical, Gracilaria chilensis
Details: 0.15 mM DCPIP as acceptor, 50 mM Tris-HCl pH 8, 1 mM Na2EDTA; phycobilisome-enriched fraction, high salt

Km: 12.5 ± 1.8 µM
SMILES: NC(=O)C1=CN([C@@H]2O[C@H](COP(=O)(O)OP(=O)(O)OC[C@H]3O[C@@H](n4cnc5c(N)ncnc54)[C@H](OP(=O)(O)O)[C@@H]3O)[C@@H](O)[C@H]2O)C=CC1 [NADPH]
